The results in this text go back to patent US11814367B2, “Inhibitors of glycogen synthase 1 (GYS1) and methods of use thereof” (Maze Therapeutics, Inc., priority 2021, dated 2023).

Structures are written as SMILES.

Test [1] concerns the target hGYS1 enzyme (recombinant hGYS1/GN1 protein) (Homo sapiens (Human), UniProt P13807). As to the kind of experiment: GYS1 coupled enzyme assay (PK/LDH). Conditions: hGYS1/GN1 50 nM, UDP-Glucose 0.8 mM, G6P 1 mM; geometric mean of at least 2 runs. It counts as biochemical.
In test [2] the test system is hGYS1 enzyme / glycogen synthesis in HeLa cells. As to the kind of experiment: GYS1 cell based assay (glycogen synthesis, Glucose-glo). Also on record: species or system human. The following applies: Homo sapiens, HeLa, 24 h, 24 h incubation, 20 mM glucose, geometric mean of at least 2 runs. The procedure, abridged:
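HeLa cells starved 24 h in medium containing only 1× Glutamax were plated onto compound in medium with 20 mM glucose (1% DMSO final) for 24 h, 37 °C, 5% CO2. Acid lysates were Tris-quenched, glucoamylase-digested (pH 5.3, 1 h, 37 °C) and read by Glucose-glo luminescence. IC50 came from Hill fits, as geometric mean of ≥2 runs.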

Test [3] has as its target hGYS2 enzyme (recombinant hGYS2/GN1 protein) (Homo sapiens (Human), UniProt P54840). Briefly: GYS2 coupled enzyme assay (PK/LDH). It counts as biochemical. Conditions: geometric mean of at least 2 assay runs on separate days, read-out: Avg_IC50. The gist of the method: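 hGYS2/GN1 200 nM; UDP-Glc 2 mM; glycogen 0.2%; G6P 2 mM; PEP 2 mM, NADH 0.6 mM, PK/LDH 20 U/mL. 50 mM Tris pH 7.5, MgCl2, KCl, BSA, TCEP, 2.5% DMSO. Kinetic A340, 10 min. IC50 = geomean of ≥2 runs.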

Sequence of hGYS2 enzyme (recombinant hGYS2/GN1 protein) (P54840 whole entry): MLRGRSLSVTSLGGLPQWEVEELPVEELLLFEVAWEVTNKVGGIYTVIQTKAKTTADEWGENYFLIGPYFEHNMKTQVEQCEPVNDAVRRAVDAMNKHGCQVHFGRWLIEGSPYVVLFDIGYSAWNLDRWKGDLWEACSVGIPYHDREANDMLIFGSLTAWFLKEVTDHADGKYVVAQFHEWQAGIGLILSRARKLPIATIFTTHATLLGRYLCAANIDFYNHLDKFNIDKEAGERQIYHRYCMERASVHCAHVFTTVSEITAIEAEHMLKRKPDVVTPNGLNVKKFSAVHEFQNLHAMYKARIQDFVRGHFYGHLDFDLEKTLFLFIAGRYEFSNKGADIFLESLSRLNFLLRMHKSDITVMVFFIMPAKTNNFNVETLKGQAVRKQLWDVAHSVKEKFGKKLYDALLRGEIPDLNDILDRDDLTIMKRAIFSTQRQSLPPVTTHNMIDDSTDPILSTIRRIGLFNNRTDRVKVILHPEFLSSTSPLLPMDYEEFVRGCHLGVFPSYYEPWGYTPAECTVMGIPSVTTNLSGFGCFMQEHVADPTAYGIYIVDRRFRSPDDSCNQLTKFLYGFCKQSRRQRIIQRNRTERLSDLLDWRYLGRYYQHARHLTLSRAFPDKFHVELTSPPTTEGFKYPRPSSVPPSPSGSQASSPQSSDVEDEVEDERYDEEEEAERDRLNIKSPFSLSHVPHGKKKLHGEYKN
Sequence of hGYS2 enzyme (recombinant hGYS2/GN1 protein) (P46976 whole entry partner): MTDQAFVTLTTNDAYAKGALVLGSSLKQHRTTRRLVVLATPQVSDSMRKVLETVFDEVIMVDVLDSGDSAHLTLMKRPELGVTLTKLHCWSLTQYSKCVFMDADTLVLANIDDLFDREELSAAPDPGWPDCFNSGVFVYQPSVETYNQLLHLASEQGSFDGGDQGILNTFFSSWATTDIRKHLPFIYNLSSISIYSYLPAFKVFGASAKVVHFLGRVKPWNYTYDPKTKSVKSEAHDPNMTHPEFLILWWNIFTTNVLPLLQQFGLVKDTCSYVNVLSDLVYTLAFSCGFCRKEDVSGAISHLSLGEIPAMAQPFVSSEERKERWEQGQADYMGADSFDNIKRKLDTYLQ
Sequence of hGYS1 enzyme (recombinant hGYS1/GN1 protein) (P13807 whole entry): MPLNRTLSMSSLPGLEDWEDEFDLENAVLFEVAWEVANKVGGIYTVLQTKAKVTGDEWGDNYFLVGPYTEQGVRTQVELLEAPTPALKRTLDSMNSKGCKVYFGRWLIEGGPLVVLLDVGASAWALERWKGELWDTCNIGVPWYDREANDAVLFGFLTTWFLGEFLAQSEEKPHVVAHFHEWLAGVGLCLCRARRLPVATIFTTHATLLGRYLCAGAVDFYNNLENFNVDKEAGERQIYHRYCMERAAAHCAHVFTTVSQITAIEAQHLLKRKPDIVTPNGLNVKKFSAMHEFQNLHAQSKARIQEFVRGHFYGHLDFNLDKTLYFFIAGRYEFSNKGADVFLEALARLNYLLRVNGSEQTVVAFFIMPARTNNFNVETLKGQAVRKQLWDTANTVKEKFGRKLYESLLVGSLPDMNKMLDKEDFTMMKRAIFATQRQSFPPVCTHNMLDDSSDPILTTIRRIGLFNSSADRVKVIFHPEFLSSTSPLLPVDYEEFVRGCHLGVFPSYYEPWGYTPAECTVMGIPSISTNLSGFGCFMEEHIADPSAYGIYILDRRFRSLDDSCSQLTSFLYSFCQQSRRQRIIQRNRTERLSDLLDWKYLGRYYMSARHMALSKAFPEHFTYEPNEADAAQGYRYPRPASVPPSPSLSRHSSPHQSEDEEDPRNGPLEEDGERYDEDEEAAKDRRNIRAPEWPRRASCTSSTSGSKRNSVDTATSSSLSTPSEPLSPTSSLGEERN
Sequence of hGYS1 enzyme (recombinant hGYS1/GN1 protein) (P46976 whole entry partner): as the sequence (P46976 whole entry partner) above

Take `O=C(N[C@@H](c1ccccc1)c1ccc(C2CC(F)(F)C2)c(F)c1)[C@@H]1C[C@@H](F)CN1C(=O)Cc1cnn[nH]1` [Compound 546, (2S,4R)-N-[(S)-[4-(3,3-difluorocyclobutyl)-3-fluorophenyl](phenyl)methyl]-4-fluoro-1-[2-(1H-1,2,3-triazol-5-yl)acetyl]pyrrolidine-2-carboxamide]: the IC50 in test [1] is 27 nM; in test [2], 510 nM; in test [3] it was > 100000 nM.
`CN(C)C(=O)NCC(=O)N1C[C@H](F)C[C@H]1C(=O)N[C@@H](c1ccccc1)c1ccc(C2CC(F)(F)C2)c(F)c1` [Compound 547, (2S,4R)-N-[(S)-[4-(3,3-difluorocyclobutyl)-3-fluorophenyl](phenyl)methyl]-1-{2-[(dimethylcarbamoyl)amino]acetyl}-4-fluoropyrrolidine-2-carboxamide]: the IC50 in test [1] is 16 nM; in test [2] it was 360 nM; in test [3], > 100000 nM.
Turning to `CN(C)C(=O)NCC(=O)N1C[C@H](F)C[C@H]1C(=O)N[C@H](c1ccccc1)c1ccc(C2CC(F)(F)C2)c(F)c1` [Compound 548, (2S,4R)-N-[(R)-[4-(3,3-difluorocyclobutyl)-3-fluorophenyl](phenyl)methyl]-1-{2-[(dimethylcarbamoyl)amino]acetyl}-4-fluoropyrrolidine-2-carboxamide], the IC50 in test [1] is 328 nM; in test [2] it was 5760 nM; in test [3] it was > 100000 nM.
Regarding `O=C(N[C@@H](c1ccccc1)c1ccc(C2CC(F)(F)C2)c(F)c1)[C@@H]1C[C@@H](F)CN1C(=O)Cn1cnc2ccccc21` [Compound 549, (2S,4R)-1-[2-(1H-1,3-benzodiazol-1-yl)acetyl]-N-[(S)-[4-(3,3-difluorocyclobutyl)-3-fluorophenyl](phenyl)methyl]-4-fluoropyrrolidine-2-carboxamide], the results for the IC50 in test [1], in test [2] and in test [3] were 6 nM, 120 nM and > 100000 nM, respectively.
For `Cc1cnc(CC(=O)N2C[C@H](F)C[C@H]2C(=O)N[C@@H](c2ccccc2)c2ccc(C3CC(F)(F)C3)c(F)c2)o1` [Compound 550, (2S,4R)-N-[(S)-[4-(3,3-difluorocyclobutyl)-3-fluorophenyl](phenyl)methyl]-4-fluoro-1-[2-(5-methyl-1,3-oxazol-2-yl)acetyl]pyrrolidine-2-carboxamide], the IC50 in test [1] is 42 nM; in test [2], 650 nM; in test [3] it was > 100000 nM.
For `Cc1cn(CC(=O)N2C[C@H](F)C[C@H]2C(=O)N[C@@H](c2ccccc2)c2ccc(C3CC(F)(F)C3)c(F)c2)c(=O)[nH]c1=O` [Compound 551, (2S,4R)-N-[(S)-[4-(3,3-difluorocyclobutyl)-3-fluorophenyl](phenyl)methyl]-4-fluoro-1-[2-(5-methyl-2,4-dioxo-1,2,3,4-tetrahydropyrimidin-1-yl)acetyl]pyrrolidine-2-carboxamide], the IC50 in test [1] is 7 nM; in test [2] it was 210 nM; in test [3] it was > 100000 nM.
With `O=C(N[C@@H](c1ccccc1)c1ccc(C2CC(F)(F)C2)c(F)c1)[C@@H]1C[C@@H](F)CN1C(=O)Cc1ncco1` [Compound 552, (2S,4R)-N-[(S)-[4-(3,3-difluorocyclobutyl)-3-fluorophenyl](phenyl)methyl]-4-fluoro-1-[2-(1,3-oxazol-2-yl)acetyl]pyrrolidine-2-carboxamide], the IC50 is 82 nM in test [1], 1120 nM in test [2] and > 100000 nM in test [3].
The corresponding values for `O=C(N[C@@H](c1ccccc1)c1ccc(C2CC(F)(F)C2)c(F)c1)[C@@H]1C[C@@H](F)CN1C(=O)Cc1[nH]nnc1C(F)(F)F` [Compound 553, (2S,4R)-N-[(S)-[4-(3,3-difluorocyclobutyl)-3-fluorophenyl](phenyl)methyl]-4-fluoro-1-{2-[4-(trifluoromethyl)-1H-1,2,3-triazol-5-yl]acetyl}pyrrolidine-2-carboxamide] are 8 nM, 400 nM and > 100000 nM.
The corresponding values for `Cc1coc(CC(=O)N2C[C@H](F)C[C@H]2C(=O)N[C@@H](c2ccccc2)c2ccc(C3CC(F)(F)C3)c(F)c2)n1` [Compound 554, (2S,4R)-N-[(S)-[4-(3,3-difluorocyclobutyl)-3-fluorophenyl](phenyl)methyl]-4-fluoro-1-[2-(4-methyl-1,3-oxazol-2-yl)acetyl]pyrrolidine-2-carboxamide] are 34 nM, 380 nM and > 100000 nM.
Consider `Cc1cn(CC(=O)N2C[C@H](F)C[C@H]2C(=O)N[C@@H](c2ccccc2)c2ccc(C3(C)CC3)c(F)c2)c(=O)[nH]c1=O` [Compound 556, (2S,4R)-4-fluoro-N—((S)-(3-fluoro-4-(1-methylcyclopropyl)phenyl)(phenyl)methyl)-1-(2-(5-methyl-2,4-dioxo-3,4-dihydropyrimidin-1(2H)-yl)acetyl)pyrrolidine-2-carboxamide], for which the IC50 in test [1] is 27 nM; in test [2], 760 nM; in test [3] it was > 100000 nM.
The corresponding values for `CC1(c2ccc([C@@H](NC(=O)[C@@H]3C[C@@H](F)CN3C(=O)Cc3cnn[nH]3)c3ccccc3)cc2F)CC1` [Compound 558, (2S,4R)-4-fluoro-N-[(S)-[3-fluoro-4-(1-methylcyclopropyl)phenyl](phenyl)methyl]-1-[2-(1H-1,2,3-triazol-5-yl)acetyl]pyrrolidine-2-carboxamide] are 136 nM, 2460 nM and > 100000 nM.
Turning to `CC1(c2ccc([C@@H](NC(=O)[C@@H]3C[C@@H](F)CN3C(=O)COC(=O)N3CCC3)c3ccccc3)cc2F)CC1` [Compound 560, 2-[(2S,4R)-4-fluoro-2-{[(S)-[3-fluoro-4-(1-methylcyclopropyl)phenyl](phenyl)methyl]carbamoyl}pyrrolidin-1-yl]-2-oxoethyl azetidine-1-carboxylate], the results for the IC50 in test [1], in test [2] and in test [3] were 144 nM, 1800 nM and > 100000 nM, respectively.
For `Cn1c(CC(=O)N2C[C@H](F)C[C@H]2C(=O)N[C@@H](c2ccccc2)c2ccc(C3(C)CC3)c(F)c2)cc2ccccc21` [Compound 561, (2S,4R)-4-fluoro-N-[(S)-[3-fluoro-4-(1-methylcyclopropyl)phenyl](phenyl)methyl]-1-[2-(1-methyl-1H-indol-2-yl)acetyl]pyrrolidine-2-carboxamide], in that order: 36 nM, 870 nM and > 100000 nM.
In the case of `CC1(c2ccc([C@@H](NC(=O)[C@@H]3C[C@@H](F)CN3C(=O)CN3CCNCC3=O)c3ccccc3)cc2F)CC1` [Compound 562, (2S,4R)-4-fluoro-N-[(S)-[3-fluoro-4-(1-methylcyclopropyl)phenyl](phenyl)methyl]-1-[2-(2-oxopiperazin-1-yl)acetyl]pyrrolidine-2-carboxamide], the IC50 is 685 nM in test [1], 7070 nM in test [2] and > 100000 nM in test [3].
On to `Cn1cc(CC(=O)N2C[C@H](F)C[C@H]2C(=O)N[C@@H](c2ccccc2)c2ccc(C3(C)CC3)c(F)c2)c2ccccc21` [Compound 563, (2S,4R)-4-fluoro-N-[(S)-[3-fluoro-4-(1-methylcyclopropyl)phenyl](phenyl)methyl]-1-[2-(1-methyl-1H-indol-3-yl)acetyl]pyrrolidine-2-carboxamide], for which the IC50 in test [1] is 63 nM; in test [2] it was 780 nM; in test [3], > 100000 nM.
